US10512656B2, “Compositions and methods for the treatment of lysosomal storage disorders and disorders characterized by lysosomal dysfunction” (Baylor College of Medicine, priority 2016, dated 2019)

Legend:
[1] = system: TFEB; test: Serum re-stimulation of serum-starved Tsc2-/- cells, TFEB localization; format: cell-based, mouse; details: preincubation with MK2206
Experimental: FIG. 15. Serum stimulation modulates subcellular localization of TFEB by regulating Akt activity. (a) WT and Tsc2^−/− cells were serum starved (16 h), treated with MK2206 in the last two hr of starvation where indicated, and stimulated with dialyzed serum for the last 30 min when indicated. Cell lysates were probed with antibodies as indicated. (b) WT and Tsc2^−/− cells were transiently transfected with TFEB-Flag and treated as in (a) and analyzed by immunofluorescence confocal microscopy. Scale bar is 60 μm.

[2] = system: Cln3^Δex7-8 and WT mice; test: Auditory brainstem response (ABR) measurements; format: in vivo, mouse; details: 10-month-old mice, both genotypes, vs untreated age-matched controls
Experimental: ABRs were measured as previously described^69. Briefly, 10-month-old mice (n=4-6 per genotype/treatment group) were anaesthetized using an intraperitoneal injection of ketamine (100 mg/kg) and xylazine (10 mg/kg) and then immobilized in a head holder. Normal body temperature was maintained throughout the procedure by placing the mice on a heating pad. Pure tone stimuli from 4 to 48 kHz were generated using Tucker-Davis Technologies System 3 digital signal processing hardware and software (Tucker-Davis Technologies, Alachua, Fla., USA), and the intensity of the tone stimuli was calibrated using a type 4,938 ¼″ pressure-field calibration microphone (Bruel and Kjar, Nrum, Denmark). Response signals were recorded with subcutaneous needle electrodes inserted at the vertex of the scalp, the postauricular region and the back leg (ground)^69. Auditory thresholds were determined by decreasing the sound intensity of each stimulus from 90 to 10 dB in 5 dB steps, until the lowest sound intensity with reproducible and recognizable waves in the response was reached. Mean hearing thresholds±s.d. (dB SPL) were plotted as a function of stimulus frequency (kHz). Statistical analysis consisted of one-way analyses of variance to reveal overall trends accompanied by two-tailed Student's t-tests at individual frequencies to evaluate frequency-specific effects. […]

[3] = system: Cln3^Δex7-8 mice; test: TEM counting of fingerprint profiles; format: in vivo, mouse
Experimental: Mice were anaesthetized and perfused intracardially with saline solution followed by 2% formaldehyde+2.5% glutaraldehyde in 0.1M sodium cacodylate buffer (pH 7.4). Brains were removed and small pieces of cerebellum and cortex were collected, and further postfixed in 2% formaldehyde|o2.5% glutaraldehyde, 0.1M sodium cacodylate buffer (pH 7.4) for 24 h. One-hundred micrometer coronal sections were cut with a vibratome and fixed in 1% OsO4 in 0.1M cacodylate for 1 h, stained with uranyl acetate dehydrated and embedded in Eponate 812. Ultrathin sections at 60 nm were obtained on an RMC MT6000 ultramicrotome and examined with a Hitachi H7500 transmission electron microscope. Images were captured using a Gatan US1000 high-resolution digital camera and Digital Micrograph software (v1.82.366).

[4] = system: Cln3^Δex7-8 mice; test: Hot plate test (pain sensitivity); format: in vivo, mouse; details: six-month-old Cln3^Δex7-8 mice, 50° C. surface
Description: FIG. 1. Amelioration of disease pathology in JNCL mice fed with trehalose. […] Treated (Tre) Cln3^Δex7-8 mice: n=13. Untreated (UT) Cln3^4ex7-8 mice: n=12. (b) Weight of brains from 12-month-old WT and Cln3^Δex7-8 mice with or without trehalose treatment. All groups of mice, n=4 or 5. (c) Fractional anisotropy of brains from 12-month-old WT and Cln3^Δex7-8 mice with or without trehalose treatment. Left panel: representative coronal images of the four groups of brains; corpus callosa are indicated by the yellow arrowhead. Right panel: quantification of callosal volume. All groups of mice, n=3 or 4. Scale bar, […]. Three-dimensional reconstructions of the corpus callosum in mice from treated and control groups are reported in Supplementary Movies 1-4. (d) In the hot plate test, Cln3^Δex7-8 mice respond slower when placed on a 50° C. heated metal surface compared with wild-type (WT) littermates, indicating reduced pain sensitivity. Trehalose (Tre) treatment rescued this phenotype in Cln3^Δex7-8 mice. All groups of mice, n=14-19. Data represent means±s.e.m. *P<0.05, **P<0.01, ***P<0.001.

[5] = system: TFEB; test: TFEB nuclear translocation in WT and Tsc2-/- MEFs; format: cell-based, mouse; details: Tsc2-/- MEFs (constitutively active mTORC1) and control MEFs
Experimental: (b) Quantification of TFEB subcellular localization (C, cytoplasmic; N, nuclear) after 24 h of trehalose treatment (Tre) or in untreated cells (UT). Scale bars in a, b is 40 μm. (c) Immunoblot analyses show expression levels of substrates downstream of mTORC1. Wild-type (WT) and TSC2 null MEF cells were treated with trehalose (Tre; 100 mM) for 24 h or left untreated. As controls, cells were treated with Torin 1 (300 nM) or rapamycin (300 nM) for 2 h before extracting the lysates. Phospho- and total S6K1 (P-S6K1 and T-S6K1), phospho- and total S6 (P-S6 and T-S6) and phospho- and total 4E-BP1 (P-4E-BP1 and T-4E-BP1) were detected as readouts of mTORC1 activity. […] (f) HeLa cells co-transfected with TFEB-3×FLAG and mTOR or (g) TFEB-3×FLAG and constitutively active mTOR (CA-mTOR, […]) constructs were treated with trehalose (100 mM for 24 h) or left untreated before immunofluorescent labelling of TFEB (red) and mTOR (green) with FLAG and mTOR antibodies, respectively. Scale bar, 10 μm (d-g). Data represent means±s.e.m.
For immunofluorescence assay, cells were grown on coverslips in 24-well plates. After the treatment, cells were washed with PBS and fixed with methanol for 10 min. Cells were then blocked with blocking reagent (0.1% saponin, 10% bovine serum in PBS) for 1 h and incubated with appropriate primary antibody(s) (1:100) for 3 h at room temperature. […]

Row | Compound | TFEB nucleus-to-cytosol translocation on serum re-stimulation [1] | ABR thresholds [2] | number of fingerprint profiles ([3]; Purkinje cells, P=0.047) | number of fingerprint profiles ([3]; cortical neurons, P=0.017) | pain sensitivity in hot plate assay [4] | TFEB nuclear translocation [5]
1 | Cl.NC1(c2ccc(-c3nc4ccn5c(=O)[nH]nc5c4cc3-c3ccccc3)cc2)CCC1 [MK2206, 8-[4-(1-aminocyclobutyl)phenyl]-9-phenyl-1,2,4-triazolo[3,4-f][1,6]naphthyridin-3(2H)-one] | prevented |  |  |  |  | 
2 | OC[C@H]1O[C@H](O[C@H]2O[C@H](CO)[C@@H](O)[C@H](O)[C@H]2O)[C@H](O)[C@@H](O)[C@@H]1O [trehalose, a-D-glucopyranosyl a-D-glucopyranoside] |  | lower ABR thresholds | significantly reduced the number of fingerprint profiles | significantly reduced the number of fingerprint profiles | fully restored | induce TFEB nuclear translocation even with an active mTORC1
